# Values of other authors as cited in patent publication US20050020810A1, “Peptides which target tumor and endothelial cells, compositions and uses thereof” (priority 2002, published 2005).
# Tests used:
# MatLyLu cells = conditions: rat model
# CT26 colon cancer = conditions: in combination with 5-FU infusion
substance,measurement,setting,value
Ac—PHSCN—NH2,DU145 invasion,DU145,completely inhibits
same,metastasis of MatLyLu cells,MatLyLu cells,completely inhibits
same,survival,CT26 colon cancer,improved survival
